Measurements published in patent US20150105252A1, “SUBSTITUTED PYRAZOLES AS HERBICIDES” (E I DU PONT DE NEMOURS AND COMPANY, priority 2013, published 2015).
“And” between values parts separate entries of the source, which are not always exact repeats. Equal values may be shown once.

Key:
bromegrass, downy = test: Test C postemergence; format: in vivo, Bromus tectorum; settings: for Bromegrass, Downy plant response rating: scale 0 to 100
Source text: Seeds of plant species selected from blackgrass (Alopecurus myosuroides), ryegrass, Italian (Italian ryegrass, Lolium multiflorum), wheat (winter wheat, Triticum aestivum), galium (catchweed bedstraw, Galium aparine), corn (Zea mays), crabgrass, large (large crabgrass, Digitaria sanguinalis), foxtail, giant (giant foxtail, Setaria faberii), johnsongrass (Sorghum halepense), lambsquarters (Chenopodium album), morningglory (Ipomoea coccinea), nutsedge, yellow (yellow nutsedge, Cyperus esculentus), pigweed (redroot pigweed, Amaranthus retroflexus), ragweed (common ragweed, Ambrosia elation), soybean (Glycine max), barnyardgrass (Echinochloa crus-galli), oilseed rape (Brassica napus), waterhemp (common waterhemp, Amaranthus rudis), oat, wild (wild oat, Avena fatua), kochia (Kochia scoparia), Surinam grass (Brachiaria decumbens), foxtail, green (green foxtail, Setaria viridis), goosegrass (Eleusine indica), bromegrass, downy (downy bromegrass, Bromus tectorum), nightshade (eastern black nightshade, Solanum ptycanthum), cocklebur (common cocklebur, Xanthium strumarium), cupgrass, woolly (woolly cupgrass, Eriochloa villosa), bermudagrass (Cynodon dactylon), sunflower, (common oilseed sunflower, Helianthus annuus), Russian thistle (Salsola kali), and velvetleaf (Abutilon theophrasti) were planted into a blend of loam soil and sand and treated preemergence with test chemicals formulated in a non-phytotoxic solvent mixture which included a surfactant.
At the same time, plants selected from these crop and weed species and also chickweed (common chickweed, Stellaria media), canarygrass (littleseed canarygrass, Phalaris minor), and deadnettle (henbit deadnettle, Lamium amplexicaule), were planted in pots containing Redi-Earth® planting medium (Scotts Company, 14111 Scottslawn Road, Marysville, Ohio 43041) comprising spaghnum peat moss, vermiculite, wetting agent and starter nutrients and treated with postemergence applications of test chemicals formulated in the same manner. Plants ranged in height from 2 to 18 cm (1- to 4-leaf stage) for postemergence treatments. Treated plants and controls were maintained in a greenhouse for 13 to 15 days, after which time all species were compared to controls and visually evaluated. Plant response ratings, summarized in Table C, are based on a scale of 0 to 100 where 0 is no effect and 100 is complete control. A dash (-) response means no test result.

barley = test: Test C postemergence; format: in vivo, Hordeum vulgare; settings: scale 0 to 100, 0 no effect, 100 complete control
Italian ryegrass = test: Test A postemergence; format: in vivo, Lolium multiflorum
Outline: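 Visual injury ratings, 0 = no effect to 100 = complete control, taken about 10 days after treatment against untreated controls. Test chemicals, in a non-phytotoxic surfactant-containing solvent, were sprayed onto soil preemergence or onto one- to two-leaf plants (2–10 cm) postemergence, in loam–sand soil under greenhouse conditions.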

soybean = test: Test F postemergence; format: in vivo, Glycine max; settings: scale 0 to 100
Source text: (§1) Seeds of plant species selected from corn (Zea mays), soybean (Glycine max), velvetleaf (Abutilon theophrasti), lambsquarters (Chenopodium album), wild poinsettia (Euphorbia heterophylla), pigweed, palmer (palmer pigweed, Amaranthus palmeri), common waterhemp (Amaranthus rudis), surinam grass (Brachiaria decumbens), large crabgrass (Digitaria sanguinalis), crabgrass, Brazil (Brazilian crabgrass, Digitaria horizontalis), fall panicum (Panicum dichotomiflorum), giant foxtail (Setaria faberii), green foxtail (Setaria viridis), goosegrass (Eleusine indica), johnsongrass (Sorghum halepense), common ragweed (Ambrosia elation), barnyardgrass (Echinochloa crus-galli), southern sandbur (Cenchrus echinatus), arrowleaf sida (Sida rhombifolia), Italian ryegrass (Lolium multiflorum), dayflower, VA (Virginia (VA) dayflower, Commelina virginica), field bindweed (Convolvulus arvensis), cocklebur (common cocklebur, Xanthium strumarium), morningglory (Ipomoea coccinea), nightshade (eastern black nightshade, Solanum ptycanthum), kochia (Kochia scoparia), yellow nutsedge (Cyperus esculentus), and hairy beggarticks (Bidens pilosa), were planted into a silt loam soil and treated preemergence with test chemicals formulated in a non-phytotoxic solvent mixture which included a surfactant.
(§2) At the same time, plants from these crop and weed species and also horseweed (Canada horseweed, Conyza canadensis), smartweed (ladysthumb smartweed, Polygonum persicaria), waterhemp_RES1, (ALS & Triazine resistant common waterhemp, Amaranthus rudis), and waterhemp_RES2, (ALS & HPPD resistant common waterhemp, Amaranthus rudis) were treated with postemergence applications of test chemicals formulated in the same manner. Plants ranged in height from 2 to 18 cm for postemergence treatments (1- to 4-leaf stage). Treated plants and controls were maintained in a greenhouse for 14 to 21 days, after which time all species were compared to controls and visually evaluated. Plant response ratings, summarized in Table F, are based on a scale of 0 to 100 where 0 is no effect and 100 is complete control. A dash (-) response means no test result.

arrowleaf sida = test: Test F postemergence; format: in vivo, Sida rhombifolia; settings: scale 0 to 100
Source text: as §1, §2

crabgrass, Brazil = test: Test F postemergence; format: in vivo, Digitaria horizontalis; settings: scale 0 to 100
Source text: as §1, §2

field bindweed = test: Test F postemergence; format: in vivo, Convolvulus arvensis; settings: scale 0 to 100
Source text: as §1, §2

wild poinsettia = test: Test F postemergence; format: in vivo, Euphorbia heterophylla; settings: scale 0 to 100
Source text: as §1, §2

Surinam grass = test: Test F preemergence; format: in vivo, Brachiaria decumbens
Source text: as §1, §2

[1] = postemergence, 250 g ai/ha, scale 0 to 100 (0 no effect, 100 complete control)
[2] = postemergence, 62 g ai/ha, scale 0 to 100, 0 no effect, 100 complete control
[3] = postemergence, 125 g ai/ha, scale 0 to 100, 0 no effect, 100 complete control
[4] = Postemergence, 500 g ai/ha, 0 to 100 scale (0 no effect, 100 complete control)
[5] = postemergence, 125 g ai/ha, about 10 days, visual rating on 0 to 100 scale (0 no effect, 100 complete control)
[6] = Preemergence, 62 g ai/ha, scale 0 to 100
[7] = Preemergence, 125 g ai/ha, scale 0 to 100
[8] = preemergence, 16 g ai/ha, scale 0 to 100, 100 is complete control
[9] = Preemergence, 250 g ai/ha, scale 0 to 100

## CCc1cc(C(=O)NOC(C)C)nn1Cc1cccc(OC(F)(F)F)c1 [Compound 70]
bromegrass, downy; Postemergence, 31 g ai/ha
  Bromegrass, Downy plant response rating: 0
bromegrass, downy; [1]
  Plant response rating, Bromegrass, Downy: 5
bromegrass, downy; [2]
  Plant response rating, Bromegrass, Downy: 0
bromegrass, downy; [3]
  Plant response rating, Bromegrass, Downy: 5
barley; 62 g ai/ha
  Plant response rating, Barley: 5
barley; 125 g ai/ha
  Plant response rating, Barley: 10

## Cc1cc(C(=O)NCC(F)(F)F)nn1Cc1ccnc(C(F)(F)F)c1 [Compound 74]
bromegrass, downy; Postemergence, 31 g ai/ha
  Bromegrass, Downy plant response rating: 0
bromegrass, downy; postemergence, 62 g ai/ha
  Bromegrass, Downy plant response rating: 0
bromegrass, downy; [1]
  Plant response rating, Bromegrass, Downy: 0
bromegrass, downy; [3]
  Plant response rating, Bromegrass, Downy: 0
barley; 125 g ai/ha
  Plant response rating, Barley: 0

## CCCNC(=O)c1cc(OCC)n(Cc2ccnc(OC(F)F)c2)n1 [Compound 136]
Italian ryegrass; [4]
  Italian Ryegrass plant response rating: 90
Italian ryegrass; [5]
  Italian Ryegrass plant response rating: 80

## CCCNC(=O)c1cc(CC)n(Cc2cccc(OC(F)(F)F)c2)n1 [Compound 27]
bromegrass, downy; Postemergence, 31 g ai/ha
  Bromegrass, Downy plant response rating: 0
bromegrass, downy; [1]
  Plant response rating, Bromegrass, Downy: 10
bromegrass, downy; [2]
  Plant response rating, Bromegrass, Downy: 5
bromegrass, downy; [3]
  Plant response rating, Bromegrass, Downy: 5
barley; 62 g ai/ha
  Plant response rating, Barley: 20

## CCCc1cc(C(=O)NC2CC2)nn1Cc1ccnc(OC(F)F)c1 [Compound 205]
Italian ryegrass; Postemergence, 125 g ai/ha, 0 to 100 scale, 0 no effect, 100 complete control
  Italian Ryegrass plant response rating: 70
Italian ryegrass; [4]
  Italian Ryegrass plant response rating: 100

## CCCc1cc(C(=O)NCC(F)(F)F)nn1Cc1ccnc(OC(F)F)c1 [Compound 127]
Italian ryegrass; [4]
  Italian Ryegrass plant response rating: 90
Italian ryegrass; [5]
  Italian Ryegrass plant response rating: 80

## CCc1cc(-c2ccc(C(F)(F)F)cc2)nn1Cc1ccnc(C(F)(F)F)c1 [Compound 110]
soybean; Postemergence, 16 g ai/ha
  Plant response rating, Soybean: 30
soybean; Postemergence, 31 g ai/ha
  Plant response rating, Soybean: 30
soybean; Postemergence, 125 g ai/ha
  Plant response rating, Soybean: 30
soybean; postemergence, 8 g ai/ha
  Plant response rating, Soybean: 20
Arrowleaf sida; Postemergence, 16 g ai/ha
  Plant response rating, Arrowleaf Sida: 75
Arrowleaf sida; Postemergence, 31 g ai/ha
  Plant response rating, Arrowleaf Sida: 85
Arrowleaf sida; Postemergence, 125 g ai/ha
  Plant response rating, Arrowleaf Sida: 85
Arrowleaf sida; postemergence, 62 g ai/ha
  Plant response rating, Arrowleaf Sida: 40 and 75
Arrowleaf sida; postemergence, 8 g ai/ha
  Plant response rating, Arrowleaf Sida: 60
crabgrass, Brazil; Postemergence, 16 g ai/ha
  Plant response rating, Crabgrass, Brazil: 30
crabgrass, Brazil; Postemergence, 31 g ai/ha
  Plant response rating, Crabgrass, Brazil: 30
crabgrass, Brazil; Postemergence, 125 g ai/ha
  Plant response rating, Crabgrass, Brazil: 50
crabgrass, Brazil; postemergence, 62 g ai/ha
  Plant response rating, Crabgrass, Brazil: 30 and 40
crabgrass, Brazil; postemergence, 8 g ai/ha
  Plant response rating, Crabgrass, Brazil: 20
Field bindweed; Postemergence, 16 g ai/ha
  Plant response rating, Field Bindweed: 40
Field bindweed; Postemergence, 31 g ai/ha
  Plant response rating, Field Bindweed: 60
Field bindweed; Postemergence, 125 g ai/ha
  Plant response rating, Field Bindweed: 60
Field bindweed; postemergence, 62 g ai/ha
  Plant response rating, Field Bindweed: 40 and 50
Field bindweed; postemergence, 8 g ai/ha
  Plant response rating, Field Bindweed: 30
Wild poinsettia; Postemergence, 16 g ai/ha
  Plant response rating, Wild Poinsettia: 70
Wild poinsettia; Postemergence, 31 g ai/ha
  Plant response rating, Wild Poinsettia: 75
Wild poinsettia; Postemergence, 125 g ai/ha
  Plant response rating, Wild Poinsettia: 95
Wild poinsettia; postemergence, 62 g ai/ha
  Plant response rating, Wild Poinsettia: 60 and 80
Wild poinsettia; postemergence, 8 g ai/ha
  Plant response rating, Wild Poinsettia: 70
Surinam grass; Preemergence, 31 g ai/ha, scale 0 to 100
  Plant response rating, Surinam Grass: 5
Surinam grass; [6]
  Plant response rating, Surinam Grass: 5
Surinam grass; [7]
  Plant response rating, Surinam Grass: 10
Surinam grass; preemergence, 8 g ai/ha, scale 0 to 100, 100 is complete control
  Plant response rating, Surinam Grass: 0
Surinam grass; [8]
  Plant response rating, Surinam Grass: 0

## CCCc1cc(C(=O)NC(C)C)nn1Cc1cc(C(F)(F)F)nn1C [Compound 201]
Surinam grass; [6]
  Plant response rating, Surinam Grass: 0
Surinam grass; [7]
  Plant response rating, Surinam Grass: 35
Surinam grass; [9]
  Plant response rating, Surinam Grass: 65
Surinam grass; [8]
  Plant response rating, Surinam Grass: 0

## CCc1cc(C(=O)NOC(C)C)nn1Cc1ccnc(OC(F)F)c1 [Compound 126]
Italian ryegrass; [4]
  Italian Ryegrass plant response rating: 100
Italian ryegrass; [5]
  Italian Ryegrass plant response rating: 90

## CCc1cc(C(=O)NCC(F)(F)F)nn1Cc1ccnc(Br)c1 [Compound 224]
Surinam grass; [6]
  Plant response rating, Surinam Grass: 70
Surinam grass; [7]
  Plant response rating, Surinam Grass: 50
Surinam grass; [9]
  Plant response rating, Surinam Grass: 65

## CCOc1cc(C(=O)NCC(F)(F)F)nn1Cc1ccnc(OC(F)F)c1 [Compound 128]
Italian ryegrass; [4]
  Italian Ryegrass plant response rating: 100
Italian ryegrass; [5]
  Italian Ryegrass plant response rating: 90

## CCCNC(=O)c1cc(CC)n(Cc2nc(C(F)(F)F)nn2C)n1 [Compound 109]
soybean; Postemergence, 16 g ai/ha
  Plant response rating, Soybean: 50
soybean; Postemergence, 31 g ai/ha
  Plant response rating, Soybean: 70
soybean; Postemergence, 125 g ai/ha
  Plant response rating, Soybean: 95
soybean; Postemergence, 250 g ai/ha
  Plant response rating, Soybean: 95
Arrowleaf sida; Postemergence, 16 g ai/ha
  Plant response rating, Arrowleaf Sida: 30
Arrowleaf sida; Postemergence, 31 g ai/ha
  Plant response rating, Arrowleaf Sida: 30
Arrowleaf sida; Postemergence, 125 g ai/ha
  Plant response rating, Arrowleaf Sida: 50
Arrowleaf sida; Postemergence, 250 g ai/ha
  Plant response rating, Arrowleaf Sida: 60
crabgrass, Brazil; Postemergence, 16 g ai/ha
  Plant response rating, Crabgrass, Brazil: 10
crabgrass, Brazil; Postemergence, 31 g ai/ha
  Plant response rating, Crabgrass, Brazil: 10
crabgrass, Brazil; Postemergence, 125 g ai/ha
  Plant response rating, Crabgrass, Brazil: 40
crabgrass, Brazil; Postemergence, 250 g ai/ha
  Plant response rating, Crabgrass, Brazil: 70
Field bindweed; Postemergence, 16 g ai/ha
  Plant response rating, Field Bindweed: 30
Field bindweed; Postemergence, 31 g ai/ha
  Plant response rating, Field Bindweed: 40
Field bindweed; Postemergence, 125 g ai/ha
  Plant response rating, Field Bindweed: 50
Field bindweed; Postemergence, 250 g ai/ha
  Plant response rating, Field Bindweed: 80
Wild poinsettia; Postemergence, 16 g ai/ha
  Plant response rating, Wild Poinsettia: 40
Wild poinsettia; Postemergence, 31 g ai/ha
  Plant response rating, Wild Poinsettia: 50
Wild poinsettia; Postemergence, 125 g ai/ha
  Plant response rating, Wild Poinsettia: 70

## CCONC(=O)c1cc(CC)n(Cc2cccc(OC(F)(F)F)c2)n1 [Compound 72]
bromegrass, downy; Postemergence, 31 g ai/ha
  Bromegrass, Downy plant response rating: 5
bromegrass, downy; postemergence, 62 g ai/ha
  Bromegrass, Downy plant response rating: 5
bromegrass, downy; [1]
  Plant response rating, Bromegrass, Downy: 15
bromegrass, downy; [3]
  Plant response rating, Bromegrass, Downy: 15
barley; 125 g ai/ha
  Plant response rating, Barley: 5

## CCc1cc(C(=O)NCC(F)(F)F)nn1Cc1cccc(OC(F)(F)F)c1 [Compound 20]
bromegrass, downy; Postemergence, 31 g ai/ha
  Bromegrass, Downy plant response rating: 0
bromegrass, downy; [1]
  Plant response rating, Bromegrass, Downy: 10
bromegrass, downy; [2]
  Plant response rating, Bromegrass, Downy: 0
bromegrass, downy; [3]
  Plant response rating, Bromegrass, Downy: 5
barley; 62 g ai/ha
  Plant response rating, Barley: 20
